Values quoted from earlier work, collected in PMC11094875, “Cholecystokinin B receptor agonists alleviates anterograde amnesia in cholecystokinin-deficient and aged Alzheimer's disease mice” (Alzheimer's Research & Therapy, 2024).
Like-named read-outs stand apart in the source and are kept apart here.

What was measured:
[1] = as stated in the MWM method for the dosing schedule; no reference given
[2] = human plasm ref 31
[3] = rat plasm ref 31

For `CSCC[C@H](NC(=O)[C@@H](N)Cc1c[nH]c2ccccc12)C(=O)N[C@@H](CC(=O)O)C(=O)N[C@@H](Cc1ccccc1)C(N)=O` [CCK-4, CCK tetrapeptide], the half-life [1] is given as “less than 5 min”, the half-life [2] is given as 13 min and the half-life [3] is given as less than 1 min.
